Results taken from patent EP0232423A1, “CIRCULATION IMPROVING AGENT” (GRELAN PHARMACEUTICAL CO., LTD., priority 1985, dated 1987).
Where a name gives a salt, the structure may show the parent alone.

Experiments:
isolated femoral artery [1] = experiment: Ca antagonistic action: Ca-induced contraction in K-depolarized femoral artery; format: cell-based, Mongrel dogs; details: Canis lupus familiaris, 0.25 h, 50 mM KCl, Ca-free bath, cumulative CaCl2, compound applied 15 minutes before, read-out: pA2 values on Ca-induced contraction in depolarized muscle by K (converted)
Protocol: (§1) The same measurements as in Test Example 2 were carried out using the isolated basilar artery and isolated femoral artery treated in accordance with the method of Test Example 2.
(§2) For examination of the Ca antagonistic action, the depolarization of both isolated arteries was induced with 50 mM KC1 in a bathing solution from which Ca had been removed and then CaCl2 was cumulatively applied thereto. As test compounds, (a) compound (I) (erythro form) lactate and (b) ifenprodil tartrate were applied at 15 minutes before addition of CaCl2.

isolated basilar artery [2] = experiment: PGF2α-induced 45Ca uptake in isolated basilar artery; format: cell-based, Mongrel dogs; details: 10^-5 M + 10^-5 M PGF2α; PGF2α alone 166.2 ± 6.0
Text: (§3) Using the isolated basilar artery and femoral artery treated in accordance with Test Example 2, the activity of (a) compound (I) (lactate), (b) ifenprodil tartrate and (c) verapamil hydrochloride against ^45Ca influx and ^45Ca uptake were examined by the conventional method (J. Membran. Biol., vol. 59, page 19, 1981).

ddY male mice [3] = experiment: Prolongation of gasping time in complete cerebral ischemic (decapitated) animals; format: in vivo; details: for Ratio of time (%): prolongation as compared with the control group; for Duration time of gasping: decapitated after 30 minutes
Protocol: After 30 minutes from administration, the.mice were decapitated and the duration time of gasping was measured. The control group was drug-untreated.

mice = experiment: Protective action on death caused by endotoxin shock; format: in vivo; details: for Number of survival after administration of endotoxin: of 15 (Compound (I)) or 14 (ifenprodil) animals
Text: Compound (I) and ifenprodil tartrate were orally administered to mice and the protective action on death due to endotoxin shock was examined in accordance with a known method (Folia pharmacol. japon, vol. 86, page 17, 1985). The control group was drug-untreated.

isolated femoral artery [4] = experiment: K-induced 45Ca influx in isolated femoral artery; format: cell-based, Mongrel dogs; details: 10^-5 M + 50 mM KCl
Text: as §3

isolated coronary artery = experiment: Relaxation of isolated coronary artery; format: cell-based, Mongrel dogs; details: Canis lupus familiaris, read-out: ED50 (the source's name)
Protocol: Mongrel dogs of either sex (body weight 10-17 kg) were killed by bleeding under anesthetization with pentobarbital sodium (tradename: Nembutai ® Abbott Co., USA). Thereafter, the basilar and femoral arteries were extracted and attached blood and connective tissues were carefully removed in a dish filled with Krebs bicarbonate solution (composition: NaCl 117.7 mM, KC1 4.7 mM, CaCl2 2.5 mM, MgSo4 1.2 mM, glucose 10 mM, NaHCO3 24.4 mM). Thereafter, ring preparations were made therefrom. This preparation was suspended in a bathing tube of 10 ml filled with Krebs bicarbonate solution aerated with 95 % 02 and 5 % C02.
Then, samples of basilar and femoral arteries were contracted by application of 50 mM KC1. After confirming that the contraction was sustained, (a) compound (I) (erythro form) lactate, (b) compound (I) (threo form) lactate and (c) ifenprodil; [2-(4-benzyl- piperidino-l-(4-hydroxyphenyl)propane-l-ol] tartrate were, respectively, administered as test compounds and the dose-relaxation response was examined.
A strain gauge transducer (model SB-lT manufactured by Nihon Koden Co.) was employed for recording of change of tension and isometric contraction was recorded on a recorder (model QPD 53 made by Hitachi Ltd . ) .
Experiments were conducted in accordance with the method of Test Example 2 with use of the coronary artery in place of the basilar and femoral arteries. […]

α2-adrenoceptor = experiment: Antagonism of clonidine (α2-agonist) contraction in saphenous vein; format: cell-based, Mongrel dogs; details: α2 - agonist: clonidine, competitive antagonism, 15 min
Text: (§4) In this experiment, phenylephrine and clonidine were used as al-agonist and a2-agonist, respectively, and these agonists were cumulatively applied to obtain a dose-response curve.

isolated femoral artery [5] = experiment: K-induced 45Ca uptake in isolated femoral artery; format: cell-based, Mongrel dogs; details: 50 mM KCl alone 586.0 ± 17.9
Text: as §3

α1-adrenoceptor = experiment: Antagonism of phenylephrine (α1-agonist) contraction in saphenous vein; format: cell-based, Mongrel dogs; details: α1 - agonist: phenylephrine; saphenous vein; 15 minutes treatment
Text: as §4

ddY male mice [6] = experiment: Thromboembolic respiratory depression induced by ADP; format: in vivo; details: 30 mg/kg oral, ADP 40 mg/kg i.v., Compound (I) = erythro form
Protocol: The degree of formation of platelet thrombi in the pulmonary vessels of mice induced by intravenous administration of ADP can be measured based on the decrease in the respiratory rate. The anti-platelet thrombotic action of test drugs can be evaluated by using this decrease in the respiratory rate as a standard. […] Relative respiratory rate (%) was calculated according to the following formula. [formula] (cf. "Thrombosis Research", Vol. 35, Page 311, 1984)

ddY male mice [7] = experiment: Ameliorative activity against damage of cerebral hypoxia (reduced pressure); format: in vivo
Protocol: Thirty mg/kg each of compound (I) (lactate) and ifenprodil tartrate and 16 mg/kg of phentolamine, which is an a-adrenoceptor blocker, were intraperitoneally administered to ddY male mice, respectively. […] Time from start of reduction of pressure until stop of respiration in the mice was measured. The control group was drug-untreated.

platelets of rabbit = experiment: Fluidity of platelet membrane (fluorescence polarization); format: cell-based; set-up: Fluorescence polarization: unit not given here; details: for Fluorescence polarization: fluidity increases as value decreases
Text: The activity of compound (I) (lactate) and ifenprodil tartrate against the fluidity of platelet membrane was examined according to a known method (Biochimica et Biophysica Acta, vol. 798, page 210, 1984) using platelets of rabbit and using n-butyl alcohol as a positive control.

isolated basilar artery [8] = experiment: Ca antagonistic action: Ca-induced contraction in K-depolarized basilar artery; format: cell-based, Mongrel dogs; details: Canis lupus familiaris, 0.25 h, 50 mM KCl, Ca-free bath, cumulative CaCl2, compound applied 15 minutes before, read-out: pA2 values on Ca-induced contraction in depolarized muscle by K (converted)
Protocol: as §1, §2

How did the Kb (isolated femoral artery [1]) turn out when `CC(C(O)c1ccc(O)cc1)N1CCC(Cc2ccccc2)CC1` (centres unmarked) [Ifenprodil tartrate] was run?
The Kb was 29.5 µM.

What about the “PGF2α-induced ^45Ca uptake in isolated basilar artery” value (isolated basilar artery [2]) of the same compound?
The value was 125.7 ± 5.6 n mol/g wt. tissue.

And the “Ratio of time (%)” value (ddY male mice [3]; 10 mg/kg i.p.)?
The value was 10.0%.

What about the “Duration time of gasping” value (ddY male mice [3]; 10 mg/kg intraperitoneally) of the same compound?
The value was 23.0 ± 0.5 s.

And the “Ratio of time (%)” value (ddY male mice [3]; 30 mg/kg i.p.)?
The value was 28.7%.

And the “Duration time of gasping” value (ddY male mice [3]; 30 mg/kg intraperitoneally)?
Its value is 26.9 ± 1.2 s.

What about the “Number of survival after administration of endotoxin” value (from here on “Number of survival”) (mice; 70 mg/kg oral, 18 hr) of the same compound?
The value was 11.

What about the “Number of survival” value (mice; 70 mg/kg oral, 20 hr) of the same compound?
The value was 9.

And the “Number of survival” value (mice; 70 mg/kg oral, 22 hr)?
The value was 6.

And the “Number of survival” value (mice; 70 mg/kg oral, 24 hr)?
Its value is 2.

What about the “Number of survival” value (mice; 70 mg/kg oral, 48 hr) of the same compound?
The value was 0.

And the “Number of survival” value (mice; 200 mg/kg oral, 18 hr)?
Its value is 11.

And the “Number of survival” value (mice; 200 mg/kg oral, 20 hr)?
The value was 9.

What about the “Number of survival” value (mice; 200 mg/kg oral, 22 hr) of the same compound?
Its value is 7.

What about the “Number of survival” value (mice; 200 mg/kg oral, 24 hr) of the same compound?
The value was 7.

What about the “Number of survival” value (mice; 200 mg/kg oral, 48 hr) of the same compound?
Its value is 5.

And the “protective action on the death (endotoxin shock)” value (mice; oral, mice, compound (I) at 200 mg/kg)?
The value was “no such effect”.

What about the “K-induced ^45Ca influx in isolated femoral artery” value (from here on “K-induced ^45Ca influx”) (isolated femoral artery [4]; pre-incubation 15 min, 50 mM KCl alone 94.6 ± 5.2) of the same compound?
The value was 99.8 ± 6.4 n mol/g wt. tissue.

And the “K-induced ^45Ca influx” value (isolated femoral artery [4]; pre-incubation 45 min, 50 mM KCl alone 98.4 ± 6.8)?
The value was 59.0 ± 9.8 n mol/g wt. tissue.

And the “K-induced ^45Ca influx” value (isolated femoral artery [4]; pre-incubation 135 min)?
The value was 64.8 ± 7.5 n mol/g wt. tissue.

And the EC50 (isolated coronary artery)?
The EC50 was 26 µM.

What about the pA2 value (α2-adrenoceptor) of the same compound?
The pA2 value was 8.31.

What about the “K-induced ^45Ca uptake in isolated femoral artery” value (“K-induced ^45Ca uptake” for short) (isolated femoral artery [5]; 5 x 10^-5 M + 50 mM KCl) of the same compound?
The value was 471.2 ± 40.0 n mol/g wt. tissue.

What about the “K-induced ^45Ca uptake” value (isolated femoral artery [5]; 10^-4 M + 50 mM KCl) of the same compound?
Its value is 486.5 ± 20.9 n mol/g wt. tissue.

What about the “K-induced ^45Ca uptake” value (isolated femoral artery [5]; 10^-5 M + 50 mM KCl) of the same compound?
Its value is 635.2 ± 41.4 n mol/g wt. tissue.

What about the pA2 value (α1-adrenoceptor) of the same compound?
Its pA2 value is 8.22 ± 0.29.

What about the “Relative respiratory rate (%)” value (ddY male mice [6]; 1/3 hr after administration) of the same compound?
Its value is 34.6 ±10.2 (n=8) %.

And the “Relative respiratory rate (%)” value (ddY male mice [6]; 1 hr after administration)?
The value was 61.3 ±9.3 (n=6) %.

And the “Relative respiratory rate (%)” value (ddY male mice [6]; 2 hr after administration)?
Its value is 52.7 ±6.1 (n=10) %.

What about the “Relative respiratory rate (%)” value (ddY male mice [6]; 3 hr after administration) of the same compound?
Its value is 41.0 ±4.4 (n=8) %.

And the “Relative respiratory rate (%)” value (ddY male mice [6]; 5 hr after administration)?
The value was 23.0 ±9.9 (n=7) %.

What about the “Time required for stoppage of respiration” value (ddY male mice [7]; 30 mg/kg intraperitoneally, 30 minutes before, pressure reduced to 160 mmHg) of the same compound?
The value was 85.2 ± 4.1 s.

What about the “effect on survival time (cerebral hypoxia)” value (ddY male mice [7]; i.p., 30 mg/kg compound (I) and ifenprodil tartrate, 16 mg/kg phentolamine) of the same compound?
The value was “substantially no effect”.

And the “effect on fluidity of platelet membrane” value (platelets of rabbit)?
The value was “no such activity”.

And the Fluorescence polarization (platelets of rabbit; 1 µM)?
Its Fluorescence polarization is 7.

And the Fluorescence polarization (platelets of rabbit; 10 µM)?
The Fluorescence polarization was 13±7.

What about the Fluorescence polarization (platelets of rabbit; 100 µM) of the same compound?
The Fluorescence polarization was 3±3.

What about the Kb (isolated basilar artery [8]) of the same compound?
The Kb was 5.37 µM.
